Assay [1] concerns the target T1, BRD4 Bromodomain 1 (BRD4 BD1) (Homo sapiens, UniProt O60885).
T1 construct: 44-168 and BRD4 BD2
Description: AlphaScreen binding assay, BRD4 BD1. Particulars: His-tagged BRD4 BD1 50 nM, biotinylated H4 (1-21) K5/8/12/16 tetra-acetylated peptide 50 nM, compounds listed under IC50 range headings. In short, it runs like this: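 An AlphaScreen competition format was used with His-BRD4 BD1 or BD2 and biotin-H4 K5/8/12/16-acetyl peptide, each at matched final levels of 50 nM (BD1) or 100 nM (BD2). Incubation in HEPES/NaCl buffer with 0.1% BSA and 0.01% Triton X-100 ran ≥1 h before IC50 determination.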

The target of assay [2] is T2, BRD4 Bromodomain 2 (BRD4 BD2) (Homo sapiens, UniProt O60885).
T2 construct: 333-460 were cloned, expressed, and purified to homogeneity
Description: AlphaScreen binding assay, BRD4 BD2. Particulars: His-tagged BRD4 BD2 100 nM, biotinylated H4 (1-21) K5/8/12/16 tetra-acetylated peptide 100 nM, compounds listed under IC50 range headings. The method, then: The binding of Example compounds to BRD4 Bromodomain 1 and BRD4 Bromodomain 2 was assessed using 384-well AlphaScreen assay technology. His-epitope tagged BRD4 BD144-168 and BRD4 BD2333-460 were cloned, expressed, and purified to homogeneity. BRD4 BD1 and BRD4 BD2 binding and inhibition was assessed by monitoring the engagement of biotinylated Histone H4 (1-21) K5/8/12/16 tetra-acetylated peptide with the targets using the AlphaScreen technology (PerkinElmer). Specifically, in a 384-well black or white flat bottom plate, BRD4 BD1 (50 nM final) or BRD4 BD2 (100 nM final) was combined with peptide (50 nM final for BD1 or 100 nM final for BD2) in 50 mM HEPES (pH 7.3), 100 mM NaCl, 0.1% (w/v) BSA, and 0.01% (w/v) Triton X-100 either in the presence of DMSO (final 1.25% DMSO) or compound dilution series in DMSO. Alpha streptavidin donor beads and Nickel-chelate acceptor beads were added to a final concentration of 10 μg/ml each. After a minimum of 1 hour equilibration, plates were read on a BMG PHERAstar FS multi-label reader (BMG LabTech). The half maximal inhibitory concentration (IC50) values were calculated using IDBS Activity Base software with a four parameter logistic curve fit by the equation y=A+((B−A)/(1+((C/x)^D))), wherein A denotes the bottom plateau of the curve, B denotes the top plateau of the curve, C denotes the x value at the middle of the curve, D denotes the slope factor, x denotes the original known x values, and y denotes the original known y values. Data was fitted using the Levenburg Marquardt algorithm.

Molecules are shown by their SMILES. pIC50: −log10 of the molar value. Where only a bound is given, the exact number is not on record here.

In the case of `COC(=O)N1c2ccc(-c3cnn(C4CC4)c3)c(OCC(C)(C)F)c2CC[C@@H]1C` [I-16, (S)-methyl 6-(1-cyclopropyl-1H-pyrazol-4-yl)-5-(2-fluoro-2-methylpropoxy)-2-methyl-3,4-dihydroquinoline-1(2H)-carboxylate], the pIC50 was 5.00 to 6.00 in assay [1] and 6.30 to 7.30 in assay [2].

For `CC(=O)N1c2ccc(-c3cnn(C4CC4)c3)c(OCS(N)(=O)=O)c2CC[C@@H]1C` [I-45, (S)-(1-acetyl-6-(1-cyclopropyl-1H-pyrazol-4-yl)-2-methyl-1,2,3,4-tetrahydroquinolin-5-yloxy)methanesulfonamide], the pIC50 in assay [1] is at most 5.00; in assay [2], at most 6.30.

For the compound `COC(=O)N1c2ccc(-c3cnn(CC(C)(C)O)c3)c(OC[C@H]3CCC(=O)N3)c2CC[C@@H]1C` [I-468], the negative-log IC50 (pIC50) in assay [1] is 5.00 to 6.00; in assay [2], 6.30 to 7.30.

Turning to `CCCOc1c(-c2ccc(S(=O)(=O)CC)cc2)ccc2c1CC[C@H](C)N2C(C)=O` [I-484], the pIC50 in assay [1] is 5.00 to 6.00; in assay [2], 6.30 to 7.30.

Consider `COC(=O)N1c2ccc(-c3cnn(C4CC4)c3)c(OCS(N)(=O)=O)c2CC[C@@H]1C` [I-28, (S)-methyl 6-(1-cyclopropyl-1H-pyrazol-4-yl)-2-methyl-5-(sulfamoylmethoxy)-3,4-dihydroquinoline-1(2H)-carboxylate], for which the figures for the pIC50 in assay [1] and in assay [2] were 5.00 to 6.00 and at most 6.30, respectively.

With `CC(=O)N1c2ccc(-c3cnn(C4CC4)c3)c(OCCF)c2CC[C@@H]1C` [I-5, (S)-1-(6-(1-cyclopropyl-1H-pyrazol-4-yl)-5-(2-fluoroethoxy)-2-methyl-3,4-dihydroquinolin-1(2H)-yl)ethanone], the pIC50 in assay [1] was 5.00 to 6.00; in assay [2] it was 6.30 to 7.30.

In the case of `CC(=O)N1c2ccc(-c3cnn(C4CC4)c3)c(OC(CF)CF)c2CC[C@@H]1C` [I-38, (S)-1-(6-(1-cyclopropyl-1H-pyrazol-4-yl)-5-(1,3-difluoropropan-2-yloxy)-2-methyl-3,4-dihydroquinolin-1(2H)-yl)ethanone], the results for the pIC50 in assay [1] and in assay [2] were 5.00 to 6.00 and 6.30 to 7.30, respectively.

Take `CCS(=O)(=O)c1ccc(-c2ccc3c(c2OCC(=O)N(C)C)CC[C@H](C)N3C(C)=O)cc1` [I-485]: the pIC50 in assay [1] is 5.00 to 6.00; in assay [2], at most 6.30.

Turning to `COC(=O)N1c2ccc(-c3cnn(C4CC4)c3)c(OCC3(CO)COC3)c2CC[C@@H]1C` [I-32, (S)-methyl 6-(1-cyclopropyl-1H-pyrazol-4-yl)-5-((3-(hydroxymethyl)oxetan-3-yl)methoxy)-2-methyl-3,4-dihydroquinoline-1(2H)-carboxylate], the figures for the pIC50 in assay [1] and in assay [2] were 5.00 to 6.00 and 6.30 to 7.30, respectively.

Take `CC(=O)N1c2ccc(-c3cnn(C4CC4)c3)c(OCc3cncs3)c2CC[C@@H]1C` [I-406]: the negative-log IC50 (pIC50) in assay [1] was 5.00 to 6.00; in assay [2], 6.30 to 7.30.

Consider `COC(=O)N1c2ccc(-c3cnn(CCO)c3)c(OCCN(C)S(C)(=O)=O)c2CC[C@@H]1C` [I-473], for which the pIC50 in assay [1] is 5.00 to 6.00; in assay [2], 6.30 to 7.30.

On to `COC(=O)N1c2ccc(-c3cnn(C4CC4)c3)c(OCCN3CCCC3=O)c2CC[C@@H]1C` [I-25, (S)-methyl 6-(1-cyclopropyl-1H-pyrazol-4-yl)-2-methyl-5-(2-(2-oxopyrrolidin-1-yl)ethoxy)-3,4-dihydroquinoline-1(2H)-carboxylate], for which the pIC50 in assay [1] was 5.00 to 6.00; in assay [2] it was 6.30 to 7.30.

On to `CC(=O)N1c2ccc(-c3cnn(C4CC4)c3)c(OCc3ccno3)c2CC[C@@H]1C` [I-381], for which the pIC50 in assay [1] is 5.00 to 6.00; in assay [2], 6.30 to 7.30.

As to `CCCOc1c(-c2cccc(NS(C)(=O)=O)c2)ccc2c1CC[C@H](C)N2C(C)=O` [I-490], the pIC50 is 5.00 to 6.00 in assay [1] and 6.30 to 7.30 in assay [2].

Consider `COC(=O)N1c2ccc(-c3cnn(CCO)c3)c(OCC(=O)N(C)C)c2CC[C@@H]1C` [I-3, (S)-methyl 5-(2-(dimethylamino)-2-oxoethoxy)-6-(1-(2-hydroxyethyl)-1H-pyrazol-4-yl)-2-methyl-3,4-dihydroquinoline-1(2H)-carboxylate], for which the figures for the pIC50 in assay [1] and in assay [2] were 5.00 to 6.00 and 6.30 to 7.30, respectively.

`CC(=O)N1c2ccc(-c3cccc(S(C)(=O)=O)c3)c(OCC(=O)N(C)C)c2CC[C@@H]1C` [I-493]: the pIC50 in assay [1] was 5.00 to 6.00; in assay [2], at most 6.30.

Turning to `CCCOc1cccc2c1CC[C@H](C)N2C(C)=O` [I-605], the pIC50 in assay [1] was at most 5.00; in assay [2], at most 6.30.

As to `COC(=O)N1c2ccc(-c3cnn(CC(C)(C)O)c3)c(OCC(C)C)c2CC[C@@H]1C` [I-456], the pIC50 in assay [1] was 5.00 to 6.00; in assay [2] it was 6.30 to 7.30.

Take `CCNC(=O)COc1c(-c2cnn(C3CC3)c2)ccc2c1CC[C@H](C)N2C(C)=O` [I-4, (S)-2-(1-acetyl-6-(1-cyclopropyl-1H-pyrazol-4-yl)-2-methyl-1,2,3,4-tetrahydroquinolin-5-yloxy)-N-ethylacetamide]: the pIC50 in assay [1] was 5.00 to 6.00; in assay [2], 6.30 to 7.30.

Regarding `COC(=O)N1c2ccc(-c3cnn(CCO)c3)c(OCC(C)C)c2CC[C@@H]1C` [I-457], the results for the pIC50 in assay [1] and in assay [2] were 5.00 to 6.00 and 6.30 to 7.30, respectively.

For `CC(=O)N1c2ccc(-c3cnn(CCO)c3)c(OC[C@H]3CCC(=O)N3)c2CC[C@@H]1C` [I-434], the pIC50 in assay [1] was 5.00 to 6.00; in assay [2], 6.30 to 7.30.

As for `CC(=O)N1c2ccc(-c3cnn(CCO)c3)c(OCC(=O)N3CCCC3)c2CC[C@@H]1C` [I-430], the pIC50 is 5.00 to 6.00 in assay [1] and 6.30 to 7.30 in assay [2].

On to `CC(=O)N1c2ccc(-c3ccc(N(C)S(C)(=O)=O)cc3)c(OCC(=O)N(C)C)c2CC[C@@H]1C` [I-503], for which the pIC50 is 5.00 to 6.00 in assay [1] and 6.30 to 7.30 in assay [2].

With `CC(=O)N1c2ccc(-c3cnn(CC(C)(C)O)c3)c(OC[C@H]3CCNC3)c2CC[C@@H]1C` [I-604], the results for the pIC50 in assay [1] and in assay [2] were 5.00 to 6.00 and at most 6.30, respectively.

As for `COc1c(-c2cnn(C3CC3)c2)ccc2c1CC[C@H](C)N2C(C)=O` [I-404], the pIC50 is 5.00 to 6.00 in assay [1] and 6.30 to 7.30 in assay [2].

Turning to `COC(=O)N1c2ccc(-c3cnn(C4CCNCC4)c3)c(OCC(=O)N(C)C)c2CC[C@@H]1C` [I-454], the figures for the pIC50 in assay [1] and in assay [2] were 5.00 to 6.00 and 6.30 to 7.30, respectively.

For the compound `CC(=O)N1c2ccc(-c3cnn(C4CC4)c3)c(OCCC3COC3)c2CC[C@@H]1C` [I-47, (S)-1-(6-(1-cyclopropyl-1H-pyrazol-4-yl)-2-methyl-5-(2-(oxetan-3-yl)ethoxy)-3,4-dihydroquinolin-1(2H)-yl)ethanone], the pIC50 in assay [1] is 5.00 to 6.00; in assay [2], 6.30 to 7.30.

On to `CC(=O)N1c2ccc(-c3cnn(C4CCNCC4)c3)c(OCC(=O)N(C)C)c2CC[C@@H]1C` [I-419], for which the negative-log IC50 (pIC50) was 5.00 to 6.00 in assay [1] and 6.30 to 7.30 in assay [2].

In the case of `COC(=O)N1c2ccc(-c3cnn(CCS(C)(=O)=O)c3)c(OCCN(C)S(C)(=O)=O)c2CC[C@@H]1C` [I-471], the pIC50 is 5.00 to 6.00 in assay [1] and 6.30 to 7.30 in assay [2].

Regarding `COC(=O)N1c2ccc(-c3cnn(CC(C)(C)O)c3)c(OCC3CCCC3)c2CC[C@@H]1C` [I-460], the pIC50 in assay [1] is 5.00 to 6.00; in assay [2], 6.30 to 7.30.

For the compound `CC(=O)N1c2ccc(-c3cnn(C4CC4)c3)c(Oc3ncccc3Cl)c2CC[C@@H]1C` [I-87, (S)-1-(5-(3-chloropyridin-2-yloxy)-6-(1-cyclopropyl-1H-pyrazol-4-yl)-2-methyl-3,4-dihydroquinolin-1 (2H)-yl)ethanone], the values for the pIC50 in assay [1] and in assay [2] were 5.00 to 6.00 and 6.30 to 7.30, respectively.

In the case of `CCCOc1c(-c2ccc(N(C)S(C)(=O)=O)cc2)ccc2c1CC[C@H](C)N2C(C)=O` [I-502], the pIC50 in assay [1] is 5.00 to 6.00; in assay [2], 6.30 to 7.30.

As to `CNC(=O)COc1c(-c2cnn(C3CC3)c2)ccc2c1CC[C@H](C)N2C(C)=O` [I-383], the values for the pIC50 in assay [1] and in assay [2] were 5.00 to 6.00 and 6.30 to 7.30, respectively.

`COC(=O)N1c2ccc(-c3cnn(CCS(C)(=O)=O)c3)c(OC[C@H]3CCNC3)c2CC[C@@H]1C` [I-475]: the pIC50 in assay [1] is 5.00 to 6.00; in assay [2] it was 6.30 to 7.30.

As to `CC(=O)N1c2ccc(-c3cnn(CC(C)(C)O)c3)c(OCC3CCOCC3)c2CC[C@@H]1C` [I-414], the results for the pIC50 in assay [1] and in assay [2] were 5.00 to 6.00 and 6.30 to 7.30, respectively.

For the compound `COC(=O)N1c2ccc(-c3cnn(C4CC4)c3)c(OCC(C)(F)F)c2CC[C@@H]1C` [I-12, (S)-methyl 6-(1-cyclopropyl-1H-pyrazol-4-yl)-5-(2,2-difluoropropoxy)-2-methyl-3,4-dihydroquinoline-1(2H)-carboxylate], the pIC50 in assay [1] is at most 5.00; in assay [2], at most 6.30.

Source of the values: US10611750B2, “Tetrahydroquinoline compositions as bet bromodomain inhibitors” (FORMA Therapeutics, Inc., priority 2013, dated 2020).
